# Read-outs that look alike come from different tables or passages of the source.
# Key:
# [1] = tested on: erythromycin A susceptible organisms and Hemophilus influenzae; test: spectrum of antibacterial activity; assay type: cell-based
# From the text: (§1) Generally twelve 2 fold dilutions of the test compound are employed, with initial concentration of the test drug being in the range of 50 to 200 mcg./ml. The susceptibility (MIC) of the test organism is accepted as the lowest concentration of compound capable of producing complete inhibition of growth as judged by the naked eye. A comparison of the activity of 4"-epi-9-deoxo-9a-methyl-9a-aza-9a-homoerythromycin A (IV) with that of an erythromycin A control is shown in replicate in the Table I.
# H. influ. 038 = test: MIC in brain heart infusion (BHI) broth; assay type: cell-based, Hemophilus influenzae; settings: Haemophilus influenzae
# From the text: as §1
# H. influ. 081 = test: MIC in brain heart infusion (BHI) broth; assay type: cell-based, Hemophilus influenzae; settings: Haemophilus influenzae
# From the text: as §1
# H. influ. 078 = test: MIC in brain heart infusion (BHI) broth; assay type: cell-based, Hemophilus influenzae; settings: Haemophilus influenzae
# From the text: as §1
# H. influ. 012 = test: MIC in brain heart infusion (BHI) broth; assay type: cell-based, Hemophilus influenzae; settings: Haemophilus influenzae
# From the text: as §1
# H. influ. 051 = test: MIC in brain heart infusion (BHI) broth; assay type: cell-based, Hemophilus influenzae; settings: Haemophilus influenzae
# From the text: as §1
# H. influ. 036 = test: MIC in brain heart infusion (BHI) broth; assay type: cell-based, Hemophilus influenzae; settings: Haemophilus influenzae
# From the text: as §1
# H. influ. 042 = test: MIC in brain heart infusion (BHI) broth; assay type: cell-based, Hemophilus influenzae; settings: Haemophilus influenzae
# From the text: as §1
# H. influ. 073 = test: MIC in brain heart infusion (BHI) broth; assay type: cell-based, Hemophilus influenzae; settings: Haemophilus influenzae
# From the text: as §1
# [2] = oral absorption and half-life in vivo
# E. Coli 129 = test: MIC in brain heart infusion (BHI) broth; assay type: cell-based; settings: Escherichia coli
# From the text: as §1
# Staph. aur. 005 = test: MIC in brain heart infusion (BHI) broth; assay type: cell-based
# From the text: as §1
# E. Coli 266 = test: MIC in brain heart infusion (BHI) broth; assay type: cell-based; settings: Escherichia coli
# From the text: as §1
# Past. mult. 001 = test: MIC in brain heart infusion (BHI) broth; assay type: cell-based; settings: BHI broth, read-out: MIC
# From the text: as §1
# Ent. cloac. 009 = test: MIC in brain heart infusion (BHI) broth; assay type: cell-based
# From the text: as §1
# Kleb. pn. 009 = test: MIC in brain heart infusion (BHI) broth; assay type: cell-based
# From the text: as §1
# E. Coli 470 = test: MIC in brain heart infusion (BHI) broth; assay type: cell-based; settings: Escherichia coli, BHI broth, read-out: MIC
# From the text: as §1
# Staph. aur. 052 = test: MIC in brain heart infusion (BHI) broth; assay type: cell-based
# From the text: as §1
# Kleb. pn. 031 = test: MIC in brain heart infusion (BHI) broth; assay type: cell-based
# From the text: as §1
# Staph. epi 111 = test: MIC in brain heart infusion (BHI) broth; assay type: cell-based
# From the text: as §1
# Serr. mar. 017 = test: MIC in brain heart infusion (BHI) broth; assay type: cell-based
# From the text: as §1
# Strep. pyog. 203 = test: MIC in brain heart infusion (BHI) broth; assay type: cell-based
# From the text: as §1
# Strep. faec. 006 = test: MIC in brain heart infusion (BHI) broth; assay type: cell-based
# From the text: as §1
# Neiss. sic. 000 = test: MIC in brain heart infusion (BHI) broth; assay type: cell-based
# From the text: as §1
# Staph. aur. 400 = test: MIC in brain heart infusion (BHI) broth; assay type: cell-based
# From the text: as §1
# Kleb. oxy. 024 = test: MIC in brain heart infusion (BHI) broth; assay type: cell-based
# From the text: as §1
# Ent. aerog. 040 = test: MIC in brain heart infusion (BHI) broth; assay type: cell-based
# From the text: as §1
# Strep. pneumo. 012 = test: MIC in brain heart infusion (BHI) broth; assay type: cell-based
# From the text: as §1
# E. Coli 125 = test: MIC in brain heart infusion (BHI) broth; assay type: cell-based; settings: Escherichia coli
# From the text: as §1
# Prov. strua. 013 = test: MIC in brain heart infusion (BHI) broth; assay type: cell-based
# From the text: as §1
# [3] = microbiological (bioassay) determination of serum levels in rats
# Protocol: Additionally, compound (IV) is tested in vivo by the well-known mouse protection test, or by a microbiological (bioassay) determination of serum levels in a variety of mammals (e.g., mouse, rat, dog).
# [4] = 48 h, Day 2, BHI broth, read-out: MIC
# [5] = 24 h, Day 1, BHI broth, read-out: MIC
compound,measurement,setting,value
"CC[C@H]1OC(=O)[C@H](C)[C@@H](O[C@H]2C[C@@](C)(OC)[C@H](O)[C@H](C)O2)[C@H](C)[C@@H](O[C@@H]2O[C@H](C)C[C@H](N(C)C)[C@H]2O)[C@](C)(O)C[C@@H](C)CN(C)[C@H](C)[C@@H](O)[C@]1(C)O [Compound (IV), 4""-epi-9-deoxo-9a-methyl-9a-aza-9a-homoerythromycin A]",spectrum of antibacterial activity,[1],"relatively broad spectrum of antibacterial activity which includes erythromycin A susceptible organisms and, in addition, fully incorporates the major respiratory pathogen Hemophilus influenzae"
same,MIC,H. influ. 038; 24 h,0.39 µg/mL
same,MIC,H. influ. 038; [4],0.78 µg/mL
same,MIC,H. influ. 081; 24 h,0.39 µg/mL
same,MIC,H. influ. 081; [4],0.78 µg/mL
same,MIC,"H. influ. 078; 24 h, Day 1",0.39 µg/mL
same,MIC,"H. influ. 078; 48 h, Day 2",0.39 µg/mL
same,MIC,"H. influ. 012; 24 h, Day 1",0.39 µg/mL
same,MIC,"H. influ. 012; 48 h, Day 2",0.39 µg/mL
same,MIC,H. influ. 051; 24 h,0.39 µg/mL
same,MIC,H. influ. 051; [4],0.78 µg/mL
same,MIC,"H. influ. 036; 24 h, Day 1",0.39 µg/mL
same,MIC,"H. influ. 036; 48 h, Day 2",0.39 µg/mL
same,MIC,"H. influ. 042; 24 h, Day 1",0.39 µg/mL
same,MIC,"H. influ. 042; 48 h, Day 2",0.39 µg/mL
same,MIC,H. influ. 073; 24 h,0.39 µg/mL
same,MIC,H. influ. 073; [4],0.78 µg/mL
same,half-life in vivo,[2]; in vivo,extraordinarily long half-life in vivo
same,oral absorption,[2]; oral,high oral absorption
same,MIC,E. Coli 129; 24 h,1.56 µg/mL
same,MIC,E. Coli 129; 48 h,6.25 µg/mL
same,MIC,Staph. aur. 005; [5],0.2 µg/mL
same,MIC,Staph. aur. 005; 48 h,0.39 µg/mL
same,MIC,E. Coli 266; 24 h,3.12 µg/mL
same,MIC,E. Coli 266; 48 h,6.25 µg/mL
same,MIC,"Past. mult. 001; 24 h, Day 1",0.1 µg/mL
same,MIC,"Past. mult. 001; 48 h, Day 2",0.1 µg/mL
same,MIC,"Ent. cloac. 009; 24 h, Day 1",25 µg/mL
same,MIC,"Ent. cloac. 009; 48 h, Day 2",25 µg/mL
same,MIC,"Kleb. pn. 009; 24 h, Day 1",12.5 µg/mL
same,MIC,"Kleb. pn. 009; 48 h, Day 2",12.5 µg/mL
same,MIC,"E. Coli 470; 24 h, Day 1",0.78 µg/mL
same,MIC,"E. Coli 470; 48 h, Day 2",0.78 µg/mL
same,MIC,Staph. aur. 052; [5],0.2 µg/mL
same,MIC,Staph. aur. 052; 48 h,0.39 µg/mL
same,MIC,"Kleb. pn. 031; 24 h, Day 1",12.5 µg/mL
same,MIC,"Kleb. pn. 031; 48 h, Day 2",12.5 µg/mL
same,MIC,"Staph. epi 111; 24 h, Day 1",0.1 µg/mL
same,MIC,"Staph. epi 111; 48 h, Day 2",0.2 µg/mL
same,MIC,"Serr. mar. 017; 24 h, Day 1",50 µg/mL
same,MIC,"Serr. mar. 017; 48 h, Day 2",50 µg/mL
same,MIC,"Strep. pyog. 203; 24 h, Day 1",0.025 µg/mL
same,MIC,"Strep. pyog. 203; 48 h, Day 2",0.025 µg/mL
same,MIC,Strep. faec. 006; 24 h,1.56 µg/mL
same,MIC,Strep. faec. 006; [4],0.78 µg/mL
same,MIC,Neiss. sic. 000; [5],0.2 µg/mL
same,MIC,Neiss. sic. 000; 48 h,0.39 µg/mL
same,MIC,Staph. aur. 400; 24 h,3.12 µg/mL
same,MIC,Staph. aur. 400; [4],12.5 µg/mL
same,MIC,"Kleb. oxy. 024; 24 h, Day 1",12.5 µg/mL
same,MIC,"Kleb. oxy. 024; 48 h, Day 2",12.5 µg/mL
same,MIC,"Ent. aerog. 040; 24 h, Day 1",12.5 µg/mL
same,MIC,"Ent. aerog. 040; 48 h, Day 2",12.5 µg/mL
same,MIC,"Strep. pneumo. 012; 24 h, Day 1",0.025 µg/mL
same,MIC,"Strep. pneumo. 012; 48 h, Day 2",0.025 µg/mL
same,MIC,E. Coli 125; 24 h,6.25 µg/mL
same,MIC,E. Coli 125; 48 h,6.25 µg/mL
same,MIC,"Prov. strua. 013; 24 h, Day 1",50 µg/mL
same,MIC,"Prov. strua. 013; 48 h, Day 2",50 µg/mL
same,absorption after oral dosage,[3],exceptionally well absorbed
same,serum levels,[3]; oral,exceptionally high and long lasting serum levels

# Reference: patent US4526889A, “Epimeric azahomoerythromycin A derivative, intermediates and method of use” (Pfizer Inc., priority 1984, dated 1985)
